Experimental data taken from publication PMC11866407, “Structure of Clostridium leptum carboxyspermidine decarboxylase and comparison to homologs prevalent within the human gut microbiome” (Acta Crystallographica Section F: Structural Biology …, 2025).

Biological target: T1, Clostridium leptum carboxyspermidine decarboxylase (ClCASDC) ([Clostridium] leptum, UniProt A7VSG2)
T1 construct: gene nspC; full length (376 residues), N-terminal His6 tag kept (pET-28b NdeI/XhoI), E. coli BL21 (DE3), codon-optimized; homodimer
T1 sequence (A7VSG2 1-376): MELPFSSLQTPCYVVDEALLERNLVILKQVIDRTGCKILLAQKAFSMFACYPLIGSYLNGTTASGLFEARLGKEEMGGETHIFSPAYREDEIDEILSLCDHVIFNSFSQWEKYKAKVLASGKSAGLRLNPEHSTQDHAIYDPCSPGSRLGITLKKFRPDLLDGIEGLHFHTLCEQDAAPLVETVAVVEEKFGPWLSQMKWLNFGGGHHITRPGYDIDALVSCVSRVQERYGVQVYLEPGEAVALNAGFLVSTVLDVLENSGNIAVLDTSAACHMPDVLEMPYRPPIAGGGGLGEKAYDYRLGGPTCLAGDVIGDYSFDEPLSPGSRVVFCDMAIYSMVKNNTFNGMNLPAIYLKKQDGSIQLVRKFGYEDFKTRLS
Test: X-ray crystal structure, […] Å
Format: binding
Conditions: covalent; Schiff base (internal aldimine) with Lys43; pre-incubated with 100 µM PLP, 5 mM DTT; HEPES pH 6.8; both chains

Q: `Cc1ncc(COP(=O)(O)O)c(C=O)c1O` [PLP, pyridoxal 5′-phosphate] was tested. Which “X-ray crystal structure, 1.41 Å” value did it give?
A: PLP forms a Schiff base with Lys43 in both chains
